What all share (format): in vivo
For test [1], the system named is Passive Cutaneous Anaphylaxis. Description: Passive Cutaneous Anaphylaxis (PCA test) in the Rat. The note with it: administered 5 minutes before the antigen. As for the experimental part: The compounds of general formula (I) are all endowed with an extremely low toxicity (the DL50 per os in rats is higher than 1600 mg/kg for all the compounds) and they are rapidly absorbed through oral administration, so that the DE50 (the dosage capable of reducing the effects of the noxious stimulus by 50%) in the Passive Cutaneous Anaphylaxis Test in the rat is almost the same whether administered orally or intraperitoneally.
(a) Production of antiovalbumin reaginic serum. Male rats (COBS-CD) weighing 300 to 400 g, are immunized by intramuscular injection of 0.1 ml/kg of ovalbumin solution obtained by dissolving 20 mg of ovalbumin (Sigma) in 1 ml of saline and by intraperitoneal injection of 1 ml of pertussis vaccine (Abetin Sclavo). After eleven days the animals are killed, the blood collected and after one night at 4° C., centrifuged and sera stored at -20° C.
(b) PCA test--Male rats (COBS-CD) weighing 125 to 135 g were sensitized by two intradermal injections on the shaved back of 0.1 ml of anti-ovalbumin serum. After 24 hours, 25 mg/kg of ovalbumin and 25 mg/kg of Evans blue are injected intravenously and thirty minutes later the animals are killed, the skin of the back removed and the major and minor diameters of the two spots on the reflected skin are measured.

Another test relates to gastric acid secretion. Kind of test: inhibition of gastric acid secretion in pylorus ligated rats (Shay rats). The note with it: Rattus norvegicus, po, os, 50% inhibition of gastric acid secretion, read-out: Antisecretory and antiulcer activity ED50 Shay. The text has this:
(§1) The pharmacological study of the antiulcer activity of the compounds, in accordance with the present invention, has been carried out determining the dose which inhibits the gastric acid secretion by 50% (ED50) in pylorus ligated rats (Shay rats) according to the method described by Shay et al., in Gastroenterology 26, 906, 1954, the dose which reduces by 50% (ED50) the indomethacin-induced ulcers according to the procedure described by Leet et al., in Arch. Int. Pharmacodyn. 191, 370, 1971 and the dose which reduces by 50% (ED50) the ulcers by cold and restraint according to the procedure described by Senay and Levine in Proc. Soc. Exp. Biol. Med. 124, 1221, 1967.

In test [2] the test system is indomethacin-induced ulcers. Description: indomethacin-induced ulcers. The settings on record: Rattus norvegicus, po; os, 50% reduction of indomethacin-induced ulcers; read-out: Antisecretory and antiulcer activity ED50 Indometacin.
Source text: as §1

In test [3] the test system is ulcers by cold and restraint. Description: ulcers by cold and restraint. The note with it: Rattus norvegicus, po; os, 50% reduction of ulcers by cold and restraint; read-out: Antisecretory and antiulcer activity ED50 Restraint.
Source text: as §1

The mark [4] stands for this setting: ip, intraperitoneal, read-out: PCA Test ED50 l.p.
Where [5] appears, read: po, os, read-out: PCA Test ED50 os.

Like-named read-outs stand apart in the source and are kept apart here.

For `CCOC(=O)C(=O)Nc1cc(OC)ncn1` [Symbol 907], the ED50 in test [1] (setting [4]) turned out to be 32 mg/kg; in test [1] (setting [5]), 100 mg/kg; in the test with gastric acid secretion, 3.2 mg/kg; in test [2], 4.6 mg/kg; in test [3] it was 12 mg/kg.
For `CCOC(=O)C(=O)Nc1cc(OC)nc(C)n1` [Symbol 913] the same measures were below 5 mg/kg, above 100 mg/kg, 3.6 mg/kg, 4.2 mg/kg and 15 mg/kg.
For `CCOC(=O)C(=O)Nc1cc(OC)nc(-c2ccccc2)n1` [Symbol 921] the same measures were 30 mg/kg, 100 mg/kg, 6.2 mg/kg, 15 mg/kg and 25 mg/kg.
For `CCOC(=O)C(=O)Nc1cc(OCCOC)nc(C)n1` [Symbol 923] the same measures were 25 mg/kg, 70 mg/kg, 4.1 mg/kg, 3.2 mg/kg and 9 mg/kg.
For the compound `CCOC(=O)C(=O)Nc1cc(OCCOCc2ccccc2)nc(C)n1` [Symbol 927], the ED50 was found to be 23 mg/kg in test [1] (setting [4]); 80 mg/kg in test [1] (setting [5]); 6.4 mg/kg in the test with gastric acid secretion; 14.8 mg/kg in test [2]; 16 mg/kg in test [3].
For `CCOC(=O)C(=O)Nc1cc(SC)nc(C)n1` [Symbol 928] the same measures were 30 mg/kg, above 100 mg/kg, 7.2 mg/kg, 2 mg/kg and 14 mg/kg.
For `CCOC(=O)C(=O)Nc1cc(SCCOC(=O)C(=O)OCC)nc(C)n1` [Symbol 929] the same measures were 2.4 mg/kg, 18 mg/kg, 8.4 mg/kg, 22.2 mg/kg and 18 mg/kg.
As to `CCOC(=O)C(=O)Nc1cc(Cl)ncn1` [Symbol 931], the ED50 in test [1] (setting [4]) was 24 mg/kg; in test [1] (setting [5]) it was above 100 mg/kg; with gastric acid secretion it was 6.3 mg/kg; in test [2], 7.2 mg/kg; in test [3], 22 mg/kg.
For `CCOC(=O)C(=O)Nc1cc(OCCOC)ncn1` [Symbol 932, 4-carbethoxycarbonilamino-6-(β-methoxyethoxy)-pyrimidine] the same measures were 10 mg/kg, 26 mg/kg, 2.1 mg/kg, 3.2 mg/kg and 7 mg/kg.
For `CCOC(=O)C(=O)Nc1ccncn1` [Symbol 933] the same measures were 32 mg/kg, 96 mg/kg, 3.8 mg/kg, 4.7 mg/kg and 10 mg/kg.
For `CCOC(=O)C(=O)Nc1cc(OC)nc(OC)n1` [Symbol 934] the same measures were 25 mg/kg, above 100 mg/kg, 4.1 mg/kg, 5.6 mg/kg and 11 mg/kg.
As to `CCOC(=O)C(=O)Nc1cc(SCCOC(=O)C(=O)OCC)ncn1` [Symbol 940], the ED50 in test [1] (setting [4]) amounted to 12 mg/kg; in test [1] (setting [5]) it was 43 mg/kg; with gastric acid secretion, 5.2 mg/kg; in test [2], 3.6 mg/kg; in test [3], 8 mg/kg.
In the case of `CCOC(=O)CCCSc1cc(NC(=O)C(=O)OCC)ncn1` [Symbol 953], the ED50 is 3.2 mg/kg in test [1] (setting [4]); 26 mg/kg in test [1] (setting [5]); 7.2 mg/kg with gastric acid secretion; 8.8 mg/kg in test [2]; 12 mg/kg in test [3].
For `CCOC(=O)C(=O)Nc1cc(SCCOC)nc(C)n1` [Symbol 955] the same measures were 6.9 mg/kg, 25 mg/kg, 2.3 mg/kg, 2.8 mg/kg and 7 mg/kg.
For `CCOC(=O)C(=O)Nc1cc(SCCOC)ncn1` [Symbol 957] the same measures were 5.8 mg/kg, 23 mg/kg, 6.2 mg/kg, 9.4 mg/kg and 14 mg/kg.
For `CCOC(=O)C(=O)Nc1cc(OCCOCCOC)ncn1` [Symbol 963] the same measures were 6.2 mg/kg, 24 mg/kg, 6.1 mg/kg, 7.3 mg/kg and 16 mg/kg.
Regarding `CCOC(=O)C(=O)Nc1cc(SCCOCCOC)ncn1` [Symbol 965], the ED50 in test [1] (setting [4]) worked out at 7.3 mg/kg; in test [1] (setting [5]) it was 20 mg/kg; in the test on gastric acid secretion, 8.3 mg/kg; in test [2], 6.1 mg/kg; in test [3], 17 mg/kg.

What is called ED50 is the midpoint of the dose-response relation.

For the origin of these results see patent US4254126A, “4-Carbethoxy-carbonilamino-pyrimidines and a process for their preparation” (POLI Industria Chimica S.p.A., priority 1978, dated 1981).
